Reference: patent US8889156B2, “Calcium-binding agents induce hair growth and/or nail growth” (priority 2009, dated 2014)

Tests used:
[1] = Free peptide with CaCl2 and NaHPO4: formation of HA crystals in solution; details: 25 μM free peptide
[2] = HA binding assay (pulldown of fluorescein-labeled peptides, Langmuir isotherm fit); details: fit of Langmuir equation
Method: Fluorescein-labeled DSS-containing peptides of various lengths were subjected to pulldown assays as follows: Samples containing varying concentrations of fluorescein-labeled peptide (0-100 μM) and a fixed amount (0.3 mg) of HA nanocrystals with a specific surface area of 100 m^2/g (Berkeley Advanced Biomaterials, Berkeley, Calif.) were prepared. Measurements were taken of the absorbance of the labeled peptide at 488 nm (the peak absorbance of the fluorescein label) before and after exposure to the HA. The amount of peptide bound was calculated by comparing the ratio of the final (Af) and initial (Ai) absorbances to the initial concentration (C0) [Cbound=(Af/Ai)C0]. Plots were generated of the amount of peptide bound per meter squared of HA surface area vs. concentration of unbound peptide at equilibrium. The resulting isotherms were fit to the Langmuir isotherm, x/m=(KANmaxCeq)/(1+KACeq), where x/m represents the molar amount of peptide bound per unit of HA surface area, KA is the affinity constant of the peptide for the HA surface (L/Mol), Nmax is the maximum surface concentration (mol/m^2), and Ceq is the molar concentration of unbound peptide at equilibrium (Calis et al. (1995) Pharm Res., 12: 1072-1076).
In order to quantitatively assess the strength of the DSS-HA interaction as well as to determine the roles of peptide length and sequence on binding, fluorescein-labeled, DSS-containing peptides of various lengths were subjected to pulldown assays as described in “Materials and Methods.”
The experimental data were fit to the Langmuir isotherm, which describes the binding of molecules to surfaces with the conditions that (1) all binding sites have the same affinity for the peptide and (2) the peptide will form a monolayer on the surface but cannot accumulate to higher levels (Atkins (1994) Physical chemistry. Freeman, New York). The excellent fit of the Langmuir isotherm to the experimental data validates these conditions, and the constants obtained from this analysis were used for comparisons between peptides. As shown in FIG. 7A and summarized in Table 6, both the binding affinity (KA) and the monolayer concentration (NMax) of the various peptides increased with the number of DSS repeats per peptide. Additionally, several variant peptides were tested (FIGS. 7B, 7C, Table 6): a peptide containing a longer side chain at the first position (4ESS (SEQ ID NO:34)), peptides containing a more sterically hindered hydroxyl group at the second and third positions (4DTT (SEQ ID NO:36), 4NTT (SEQ ID NO:38), 4ETT (SEQ ID NO:37)), peptides lacking a charged group at the first position (4NSS (SEQ ID NO:35), 8ASS (SEQ ID NO:26)), and peptides lacking hydroxyl groups at the second and third positions (DAA-8 (SEQ ID NO:40), 8NAA (SEQ ID NO:41)).

[3] = test system: mineralizing mouse bone marrow nodules; assay: Binding to mineralizing mouse bone marrow cultures (fluorescence microscopy); type: cell-based; details: labeled peptide, continuous treatment for 3 weeks
Method: Mouse bone marrow cultures were grown to confluence in DMEM+10% FBS and then treated continuously for 3 weeks with either 2.5 p.M 5(6)-carboxyfluorescein-labeled 6DSS (SEQ ID NO:32) or 2.5 p.M 5(6)-carboxyfluorescein-labeled peptide #3-1 (control peptide) in α-MEM+10% FBS+50 p.g/mL ascorbic acid 4 mM β-glycerophosphate. Cultures were imaged by fluorescence microscopy using a FITC excitation/emission filter set.
Having established that (DSS)n-containing peptides are able to actively bind HA, we sought to determine whether they would bind to emerging sites of mineralization in biologically derived tissue. Mouse bone marrow (MBM) cultures, cultured under osteogenic conditions, were treated continuously for 3 weeks with either labeled 6DSS (SEQ ID NO:32) peptide or labeled peptide #3-1 (non-calcium-binding control peptide). Cultures were imaged by fluorescence microscopy using a FITC excitation/emission filter set.

[4] = Tissue specific binding of labeled peptides to sections of human teeth (CLSM); details: 5(6)-carboxyfluorescein-labeled peptide, ten minutes
From the text: In order to investigate the tissue specificity of DSS peptide binding to tooth tissue, sections of human teeth were exposed to DSS peptides and variants, then imaged by CLSM. The peptides utilized for these experiments were 8DSS (SEQ ID NO:33), 8ASS (SEQ ID NO:26), 8DAA (SEQ ID NO:40), 8NAA (SEQ ID NO:41), 4DSS (SEQ ID NO:31), 4ESS (SEQ ID NO:34), 4NSS (SEQ ID NO:35), 4DTT (SEQ ID NO:36), 4ETT (SEQ ID NO:37), 4NTT (SEQ ID NO:38), and 6DSS (SEQ ID NO:32). Sagittal sections of human teeth extracted during normal clinical practice were polished and then incubated for ten minutes in a solution of the appropriate 5(6) carboxyfluorescein-labeled peptide (12.5pM) containing 10 mM NaCl and 50 mM HEPES, pH 7.0. Control samples were prepared without peptide. Samples were washed extensively after treatment and imaged by CLSM using blue laser illumination (A=488 nm) and a FITC emission filter, with identical camera and microscope settings for each sample. For each section, multiple scans were collected and assembled in an automated mode to generate panels of images representing an area of 13×13 mm, sufficient in most cases to encompass the whole section. […] Significant binding was also seen to the edges of the pulp cavity.

[5] = Binding of labeled peptides to carious lesions in teeth (CLSM); parameters: species or system human; details: labeled peptide, settings optimized per sample
From the text: Sections of human teeth containing obvious carious lesions, which consist of demineralized enamel, were polished and exposed to 5(6)-carboxyfluorescein-labeled DSS peptides and variants. The sections were washed extensively and imaged by CLSM using blue laser illumination (A=488 nm) and a FITC emission filter, with microscope and camera settings adjusted for each sample to optimize the signal detected from each peptide. The images were examined to identify the relative levels of peptide binding in healthy versus carious tissue. […] Given their ability to remineralize at sites of enamel degradation, they can also be used to initiate remineralization at sites of enamel degradation such as caries or injury sites without causing inappropriate nucleation on healthy tissue surfaces.

[6] = Binding of labeled peptide to sagittally sectioned adult human molars (CLSM, Example 6); details: fluorescein-labeled peptide, 10 min
Method: For binding experiments, sagittally sectioned adult human molars were incubated for 10 min in a solution of 12.5 p.M 5(6)-carboxyfluorescein-labeled 6DSS (SEQ ID NO:32) peptide containing 10 mM NaCl and 50 mM HEPES, pH 7.0. Control samples were prepared without peptide. Samples were rinsed after treatment and imaged by confocal laser scanning microscopy (CLSM) with illumination by a blue Kr/Ar laser (λ=488 nm) and a FITC emission filter. To test binding of DSS-containing peptides to biological tissue, sagittally sectioned human teeth were incubated treated with 6DSS (SEQ ID NO:32) (control samples were prepared without peptide), washed, and imaged by CLSM.

[7] = literature values quoted for comparison; cited from earlier work

For “DSS DSS DSS DSS DSS DSS (DSSDSSDSSDSSDSSDSS; synthetic calcium-binding peptide 6DSS)”, the “enhancement of HA crystal formation by free peptide at subcritical CaHPO4 concentrations” value [1] was “this was not observed”, the “Nmax (maximum monolayer surface concentration)” value [2] was 1.3 × 10^−7 ± 3 × 10^−9 mol/m^2 and the “KA (binding affinity for HA)” value ([2]; fluorescein-labeled peptide 0-100 μM, 0.3 mg HA nanocrystals) was 272,000 ± 26,000 M^−1. For the same compound, the “staining of mineralizing MBM nodules” value [3] was “bright staining of the mineralizing MBM nodules”, the “tissue pattern of binding in the tooth section” value [4] was “bound primarily to the mantle dentin” and the “level of binding (staining) to tooth surfaces” value ([4]; identical settings) was “the greatest levels of staining”. For the same compound, the “specificity of binding to carious lesions versus healthy enamel” value [5] was “highly specific binding to carious lesions”, the “strength of staining of carious lesions” value [5] was “exceptionally strong staining of carious lesions” and the binding to dentin [6] was “intense fluorescent staining”. The binding to enamel [6] was “no binding to the enamel was seen”.
In the case of `N[C@@H](CC(=O)O)C(=O)O` [Asp, aspartic acid], the HA binding affinity [7] is given as 220 M⁻¹.
For LIKHILHRL [#3-1, reference compound], the “staining of mineralizing MBM nodules” value [3] was “no binding seen”.
In the case of `N[C@@H](CCC(=O)O)C(=O)O` [glutamic acid], the HA binding affinity [7] is listed as 206 M⁻¹.
For `N[C@@H](CO)C(=O)O` [serine], the HA binding affinity [7] is listed as 317,000 M^−1.
In the case of `N[C@@H](COP(=O)(O)O)C(=O)O` [phosphoserine], the HA binding affinity [7] is given as 5,000-13,200 M^−1.
